Assay results as given in US20140294994A1, “PHARMACEUTICAL COMPOSITION FOR ELIMINATION OF CANCER STEM CELLS” (priority 2011, published 2014).
“Also recorded” adds a separate entry of the source.

What was measured:
[1] = system: A549 cells; experiment: MTT assay (cell viability); assay type: cell-based, human
Source text: (§1) In addition to the commonly used cell lines (A549 and H1975), we also established several cell lines including CL83, CL141, CL152, CL25, and CL97 cell lines which were isolated from the pleural effusion of NSCLC patients at the National Taiwan University Hospital. The investigation was approved by the Institutional Review Board of the National Taiwan University Hospital. Informed consent was obtained before pleural effusion was collected.

[2] = system: A549 cells; experiment: Clonogenic assay; assay type: cell-based, human
Method: The NSCLC cancer cell lines, A549, H1975, CL25, CL83, CL97, CL141, and CL152 were maintained in RPMI medium. Tested cells were seeded respectively in 6 well plates with 10^4 cells per well for 14 days. Each well contained 10 ml RPMI medium as cultured condition for NSCLC cells. […] Trifluoperazine and other tested drugs were added 24 hours after seeding of the cells. The medium and trifluoperazine were changed once on day 4. After the treatments, cells were washed with PBS, and the colonies were fixed with fix solution (acetic acid:methanol=1:3) and stained with 0.5% crystal violet in methanol. After removing the crystal violet carefully and rinse with tap water, the colonies were counted manually.

[3] = system: CL141 cells; experiment: Side population analysis (Hoechst 33342, flow cytometry); assay type: cell-based, human
Method: (§2) Single-cell suspensions of cells were detached from dishes with Trypsin-EDTA (Invitrogen) and suspended at 1×10^6 cells/mL in Hank's balanced salt solution (HBSS) supplemented with 3% fetal calf serum and 10 mM Hepes. […] After 90 minutes incubation, the cells were centrifuged immediately for 5 minutes at 300 g and 4° C. and resuspended in ice-cold HBSS. The cells were kept on ice to inhibit efflux of the Hoechst dye, and 1 μg/mL propidium iodide (BD) was added to discriminate dead cells. Finally, these cells were filtered through a 40 μm cell strainer (BD) to obtain single-suspension cells. Cell dual-wavelength analysis and purification were performed on a dual-laser FACS Vantage SE (BD). […] A 610 nm dichroic mirror short-pass (DMSP) was used to separate the emission wavelengths. PI-positive (dead) cells were excluded from the analysis.

[4] = system: CL141 spheroids; experiment: Cisplatin response of spheroids versus parental cells (IC50, viability, caspase-3 activity); assay type: cell-based, human
Source text: (§3) We selected three gefitinib-resistant NSCLC cell lines, CL141 (wild type EGFR), CL83 (wild type EGFR) and CL97 (EGFR-G719A+T790M acquired resistant mutation) to determine if trifluoperazine could sensitize these cells towards chemotherapeutic agents.

[5] = system: CL83 spheroids; experiment: as above; assay type: cell-based, human
Source text: as §3

[6] = system: CL97 spheroids; experiment: as above; assay type: cell-based, human
Source text: as §3

[7] = system: CL141 cells; experiment: MTT assay (cell viability); assay type: cell-based; conditions: Homo sapiens; CL141 cell line, 48 hour incubation; read-out: IC50 for trifluoperazine
Source text: as §1

[8] = system: CL152 cells; experiment: MTT assay (cell viability); assay type: cell-based; conditions: Homo sapiens; CL152 cell line, 48 hour incubation; read-out: IC50 for trifluoperazine
Source text: as §1

[9] = system: CL25 cells; experiment: MTT assay (cell viability); assay type: cell-based; conditions: Homo sapiens; CL25 cell line, 48 hour incubation; read-out: IC50 for trifluoperazine
Source text: as §1

[10] = system: CL83 cells; experiment: MTT assay (cell viability); assay type: cell-based; conditions: Homo sapiens; CL83 cell line, 48 hour incubation; read-out: IC50 for trifluoperazine
Source text: as §1

[11] = system: CL97 cells; experiment: MTT assay (cell viability); assay type: cell-based; conditions: Homo sapiens; CL97 cell line, 48 hour incubation; read-out: IC50 for trifluoperazine
Source text: as §1

[12] = system: H1975 cells; experiment: MTT assay (cell viability); assay type: cell-based; conditions: Homo sapiens, NCI-H1975; H1975 cell line, 48 hour incubation; read-out: IC50 for trifluoperazine
Source text: as §1

[13] = system: CL83 cells; experiment: Side population analysis (Hoechst 33342, flow cytometry); assay type: cell-based, human; conditions: 5 μM, untreated 1.54%
Method: as §2

[14] = system: CL97 cells; experiment: as above; assay type: cell-based, human; conditions: 5 μM, untreated 1.9%
Method: as §2

[15] = system: CL141 cells; experiment: Aldefluor assay (ALDH-positive cells); assay type: cell-based, human
Method: (§4) High aldehyde dehydrogenase (ALDH) enzyme activity was used to detect lung CSC populations in this study. The Aldefluor assay was performed according to the manufacturer's guidelines (StemCell Technologies). Briefly, single cells obtained from cell cultures were incubated in an Aldefluor assay buffer containing an ALDH substrate (bodipy-aminoacetaldehyde, BAAA) for 50 minutes at 37° C. As a negative control, a fraction of cells from each sample was incubated under identical conditions in the presence of an ALDH inhibitor (diethylaminobenzaldehyde, DEAB). Flow cytometry was used to measure the ALDH-positive cell population.

[16] = system: CL152 cells; experiment: Aldefluor assay (ALDH-positive cells); assay type: cell-based, human; conditions: 5 μM, untreated 3.73%
Method: as §4

[17] = system: CL141 spheroids; experiment: Soft agar assay (colony formation); assay type: cell-based, human; conditions: 12 days, control 92
Method: Freshly sorted CL141 side population (SP) and non-side population (NSP) cells were counted and plated in triplicate at 200 cells per well in six-well plates coated with 1% agarose. Anchorage-independent growth was assessed after incubation for 10-14 days in culture media with or without trifluoperazine (0, 5 and 10 μM), which was replaced every 4 days. Plates were stained with 0.005% crystal violet, and the colonies were counted manually under a microscope and photographed.

[18] = system: CL141 cells; experiment: Annexin V/PI staining apoptosis analysis; assay type: cell-based, human; conditions: 48 hours, versus control cells
Method: […]. Annexin V/PI staining was performed after treatment with different dosages of trifluoperazine. Both early and late apoptotic cells were counted.

[19] = system: CL97 spheroids; experiment: Western blotting analysis of cancer spheroids; assay type: cell-based, human
Method: (§5) Cells were lysed in lysis buffer (50 mM Tris-HCl, pH 7.4, 5 mM MgCl2, 1% Nonidet P-40, 150 mM NaCl, 1 mM phenylmethylsulfonyl fluoride). Total protein was isolated and subjected to SDS polyacrylamide gel electrophoresis and electrotransfered onto PVDF membranes (Millipore). Primary antibodies Bax, Bak, Bcl-2, XIAP, Mcl-1, Cleaved Caspase 9, Caspase 3, […], c-Myc, CD44, cyclin D1 were obtained from Cell Signaling, Met was purchased from Santa Cruz and CD133 was from Miltenyi Biotec, and secondary antibodies for anti-mouse and anti-rabbit horseradish preoxidase (HRP)-conjugation were from Chemicon International. The protein detection was performed with enhanced chemiluminescence (ECL™) method captured by a Luminescence Imaging System (LAS-4000™, Fuji Photo Film Co., Ltd).

[20] = system: CL141 spheroids; experiment: Western blotting and immunochemical staining of cancer spheroids; assay type: cell-based, human; conditions: CL141 spheroids, 0, 2.5, 5 and 10 μM, 48 hours
Method: as §5

[21] = system: CL83 spheroids; experiment: Tumor spheroid assay; assay type: cell-based, human; conditions: 48 hr
[22] = system: CL141 spheroids; experiment: Tumor spheroid assay; assay type: cell-based, human; conditions: 48 hr
[23] = system: CL97 spheroids; experiment: Tumor spheroid assay; assay type: cell-based, human; conditions: 48 hr
[24] = system: CL97-L2G cells; experiment: Bulk lung tumor model, bioluminescent imaging; assay type: in vivo, NOD/SCID mice; conditions: 4 weeks, trifluoperazine 5 mg/kg/day i.p., gefitinib 150 mg/kg/day oral gavage, combination trifluoperazine 5 mg/kg/day i.p. + gefitinib 100 mg/kg/day oral
Method: For bulk lung tumor model, CL97-[…] cells were intravenously administered into the animals via tail vein at a concentration of 1×10^6 cells/100 μl PBS. One week post tumor injection, different treatment regimens were started. […] CL97-[…]-bearing mice (both bulk lung tumor and CSC models) were imaged weekly using the IVIS 200 system (Caliper Life Sciences). Data are expressed as fold change in total photon flux/initial total photon flux and were analyzed using Living Image 1.0 software (Caliper Life Sciences). Mice were humanely sacrificed at the end of experiments and lung tumor biopsies were obtained for further analysis.

[25] = system: CL97-L2G spheroids; experiment: Prevention experiment, pretreated spheroids orthotopically injected into lung; assay type: in vivo, NOD/SCID mice; conditions: cells pre-treated with 5 μM overnight, versus vehicle-treated control
Method: (§6) . […] CL97-L2G-bearing mice (both bulk lung tumor and CSC models) were imaged weekly using the IVIS 200 system (Caliper Life Sciences). Data are expressed as fold change in total photon flux/initial total photon flux and were analyzed using Living Image 1.0 software (Caliper Life Sciences). Mice were humanely sacrificed at the end of experiments and lung tumor biopsies were obtained for further analysis.

[26] = system: CL97-L2G tumor samples; experiment: Protein profiles of tumor biopsies (Western blot); assay type: in vivo, NOD/SCID mice; conditions: tumor biopsies of treated mice
Method: Total cell lysates were harvested from tumor biopsies of mice which received different treatments and their protein profiles were examined.
as §5, §6

[27] = Homo sapiens, A549 cells, read-out: MTT assay (IC50)
[28] = A549 cells, read-out: MTT assay (IC50)

In the case of CC(=O)c1ccc2c(c1)N(CCCN(C)C)c1ccccc1S2 [Acepromazine], the IC50 [1, 27] is reported as over 10 µM, the IC50 ([2]; Homo sapiens) is reported as 1 to 2.5 µM and the Reduced side population [3] is reported as “No”.
For N.N.[Cl][Pt][Cl] [cisplatin], the “IC50 of spheroids compared with parental cells” value [4] was “significantly higher IC50”, the “caspase-3 activity of spheroids compared with parental cells” value ([4]; 10 μM, 24 hours) was “lower caspase-3 activity” and the “viability of spheroids compared with parental cells” value ([4]; 10 μM, 24 hours) was “higher viability”. The “IC50 of spheroids compared with parental cells” value [5] was “significantly higher IC50”, the “caspase-3 activity of spheroids compared with parental cells” value ([5]; 10 μM, 24 hours) was “lower caspase-3 activity” and the “viability of spheroids compared with parental cells” value ([5]; 10 μM, 24 hours) was “higher viability”. For the same molecule, the “IC50 of spheroids compared with parental cells” value [6] was “significantly higher IC50”, the “caspase-3 activity of spheroids compared with parental cells” value ([6]; 10 μM, 24 hours) was “lower caspase-3 activity” and the “viability of spheroids compared with parental cells” value ([6]; 10 μM, 24 hours) was “higher viability”.
In the case of Thioridazine, the Reduced side population [3] is reported as “Yes”.
In the case of CN(C)CCCN1c2ccccc2Sc2ccccc21 [Promazine], the IC50 [1, 27] is reported as over 10 µM and the Reduced side population [3] is reported as “Yes”.
In the case of CN1CCN(CCCN2c3ccccc3Sc3ccc(Cl)cc32)CC1 [Prochlorperazine], the Reduced side population [3] is reported as “No”.
With Pherphenazine [Perphenazine] the IC50 [1, 28] was over 10 µM, the IC50 [2] was 5 to 10 µM and the Reduced side population [3] was “Yes”.
In the case of CN(C)CCCN1c2ccccc2Sc2ccc(C(F)(F)F)cc21 [Triflupromazine], the IC50 [1, 27] is reported as over 10 µM and the Reduced side population [3] is reported as “Yes”.
Work on CN1CCN(CCCN2c3ccccc3Sc3ccc(C(F)(F)F)cc32)CC1 [Trifluoperazine] yielded an IC50 ([1]; Homo sapiens, A549 cell line, read-out: IC50 for trifluoperazine) of over 10 µM, an IC50 [1, 27] of over 10 µM and an IC50 [7] of 8.5 µM. The IC50 [8] was 12 µM, the IC50 [9] was 13 µM and the IC50 [10] was 14 µM. For the same molecule, the IC50 [11] was 7.2 µM, the IC50 [12] was 15 µM and the IC50 ([2]; Homo sapiens) was 1.25 to 2.5 µM. For the same molecule, the Reduced side population [3] was “Yes”, the “percentage of side population cells after treatment” value [13] was “significantly decreased” and the “percentage of side population cells after treatment” value [14] was “significantly decreased”. For the same molecule, the “ALDH-positive cell population after treatment” value ([15]; CL141 cells, 5 μM, untreated 4.31%) was 0.84%, the “percentage of ALDH+ CL141 cells” value ([15]; trifluoperazine 10 μM alone or combined with 5 μM gefitinib) was “moderately decreased” and the “ALDH-positive cell population after treatment” value [16] was 1.08%. The “mean colony number on soft agar” value ([17]; 5 μM) was 32, the “mean colony number on soft agar” value ([17]; 10 μM) was 8 and the “Annexin V-positive cells” value [18] was “dose-dependent increase”. For the same molecule, the “Bax, Bak, cleaved PARP, caspase-3 and caspase-9 levels” value ([19]; CL97 cancer spheroids) was “increased dose-dependently”, the “anti-apoptotic Bcl-2, XIAP and Mcl-1 levels” value ([19]; CL97 cancer spheroids) was “decreased” and the “CD44 and CD133 expression” value ([19]; CL97 spheroids, 0, 2.5, 5 and 10 μM, 48 hours) was “dose-dependently down-regulated”. For the same molecule, the “Cyclin D1, c-Myc and c-Met expression” value ([19]; CL97 spheroids, 48 hr) was “decreased”, the “CD44 and CD133 expression” value [20] was “dose-dependently down-regulated” and the “size and number of spheroids” value [21] was “dose-dependently decreased”. For the same molecule, the “size and number of spheroids” value [22] was “dose-dependently decreased”, the “size and number of spheroids” value [23] was “dose-dependently decreased” and the “tumor burden (fold change in bioluminescence intensity)” value [24] was “significantly reduced tumor burden; also recorded: significantly lower tumor burden”. The “in-situ tumor growth (fold change in BLI)” value [25] was “significantly delayed and suppressed; also recorded: delayed and significantly reduced in-situ tumor growth”, the “Cyclin D1 expression in tumor samples” value [26] was “suppressed” and the “activated form of caspase 3 in tumor samples” value [26] was “increased”.
In the case of OCCN1CCN(CCCN2c3ccccc3Sc3ccc(C(F)(F)F)cc32)CC1 [Fluphenazine], the Reduced side population [3] is reported as “No”.
For Promethazine, the IC50 [1, 28] was over 10 µM, the IC50 [2] was 5 to 10 µM and the Reduced side population [3] was “No”.
For CN(C)CCCN1c2ccccc2Sc2ccc(Cl)cc21 [Chlorpromazine], the IC50 [1, 28] was 5 to 10 µM, the IC50 [2] was 2.5 to 5 µM and the Reduced side population [3] was “Yes”.
COc1cc2ncnc(Nc3ccc(F)c(Cl)c3)c2cc1OCCCN1CCOCC1 [gefitinib] was tested, and the “tumor burden (fold change in bioluminescence intensity)” value [24] was “not significantly different”, the “tumor burden (fold change in bioluminescence intensity)” value ([24]; listed as genfitnib) was “no effects in suppressing tumor recurrence” and the “c-Myc and β-catenin expression in tumor samples” value [26] was “did not significantly influence”.
